Assays:
Assay type in all cases: cell-based
ATM kinase = ATM kinase (Homo sapiens (Human), UniProt Q13315); test: Assay a) ATM cellular potency assay (pATM Ser1981 in X-ray irradiated HT29 cells); conditions: HT29 cells, pATM Ser1981 after X-ray irradiation; geometric mean where repeated; read-out: Assay a) ATM Cell IC50
ATR kinase = ATR kinase (Homo sapiens (Human), UniProt Q13535); test: Assay b) ATR cellular potency assay (pChk1 Ser345 in HT29 cells treated with 4NQO); conditions: HT29 cells, pChk1 Ser345 after 4NQO; geometric mean where repeated; read-out: Assay b) ATR Cell IC50
PI3K-α = PI3K-α (Homo sapiens, UniProt P42336); test: Assay c) PI3K cellular potency assay (phospho-Akt T308 ELISA in BT474 cells); conditions: BT474 cells, phospho-Akt T308, 2 h; geometric mean where repeated; read-out: Assay c) PI3Kα Cell IC50
mTOR = mTOR (Homo sapiens (Human), UniProt P42345); test: Assay d) mTOR cellular potency assay (phospho-AKT Ser473 in MDA-MB-468 cells); conditions: MDA-MB-468 cells, phospho-AKT Ser473, 2 h; geometric mean where repeated; read-out: Assay d) mTOR Cell IC50

Chain of ATM kinase (Q13315 whole entry): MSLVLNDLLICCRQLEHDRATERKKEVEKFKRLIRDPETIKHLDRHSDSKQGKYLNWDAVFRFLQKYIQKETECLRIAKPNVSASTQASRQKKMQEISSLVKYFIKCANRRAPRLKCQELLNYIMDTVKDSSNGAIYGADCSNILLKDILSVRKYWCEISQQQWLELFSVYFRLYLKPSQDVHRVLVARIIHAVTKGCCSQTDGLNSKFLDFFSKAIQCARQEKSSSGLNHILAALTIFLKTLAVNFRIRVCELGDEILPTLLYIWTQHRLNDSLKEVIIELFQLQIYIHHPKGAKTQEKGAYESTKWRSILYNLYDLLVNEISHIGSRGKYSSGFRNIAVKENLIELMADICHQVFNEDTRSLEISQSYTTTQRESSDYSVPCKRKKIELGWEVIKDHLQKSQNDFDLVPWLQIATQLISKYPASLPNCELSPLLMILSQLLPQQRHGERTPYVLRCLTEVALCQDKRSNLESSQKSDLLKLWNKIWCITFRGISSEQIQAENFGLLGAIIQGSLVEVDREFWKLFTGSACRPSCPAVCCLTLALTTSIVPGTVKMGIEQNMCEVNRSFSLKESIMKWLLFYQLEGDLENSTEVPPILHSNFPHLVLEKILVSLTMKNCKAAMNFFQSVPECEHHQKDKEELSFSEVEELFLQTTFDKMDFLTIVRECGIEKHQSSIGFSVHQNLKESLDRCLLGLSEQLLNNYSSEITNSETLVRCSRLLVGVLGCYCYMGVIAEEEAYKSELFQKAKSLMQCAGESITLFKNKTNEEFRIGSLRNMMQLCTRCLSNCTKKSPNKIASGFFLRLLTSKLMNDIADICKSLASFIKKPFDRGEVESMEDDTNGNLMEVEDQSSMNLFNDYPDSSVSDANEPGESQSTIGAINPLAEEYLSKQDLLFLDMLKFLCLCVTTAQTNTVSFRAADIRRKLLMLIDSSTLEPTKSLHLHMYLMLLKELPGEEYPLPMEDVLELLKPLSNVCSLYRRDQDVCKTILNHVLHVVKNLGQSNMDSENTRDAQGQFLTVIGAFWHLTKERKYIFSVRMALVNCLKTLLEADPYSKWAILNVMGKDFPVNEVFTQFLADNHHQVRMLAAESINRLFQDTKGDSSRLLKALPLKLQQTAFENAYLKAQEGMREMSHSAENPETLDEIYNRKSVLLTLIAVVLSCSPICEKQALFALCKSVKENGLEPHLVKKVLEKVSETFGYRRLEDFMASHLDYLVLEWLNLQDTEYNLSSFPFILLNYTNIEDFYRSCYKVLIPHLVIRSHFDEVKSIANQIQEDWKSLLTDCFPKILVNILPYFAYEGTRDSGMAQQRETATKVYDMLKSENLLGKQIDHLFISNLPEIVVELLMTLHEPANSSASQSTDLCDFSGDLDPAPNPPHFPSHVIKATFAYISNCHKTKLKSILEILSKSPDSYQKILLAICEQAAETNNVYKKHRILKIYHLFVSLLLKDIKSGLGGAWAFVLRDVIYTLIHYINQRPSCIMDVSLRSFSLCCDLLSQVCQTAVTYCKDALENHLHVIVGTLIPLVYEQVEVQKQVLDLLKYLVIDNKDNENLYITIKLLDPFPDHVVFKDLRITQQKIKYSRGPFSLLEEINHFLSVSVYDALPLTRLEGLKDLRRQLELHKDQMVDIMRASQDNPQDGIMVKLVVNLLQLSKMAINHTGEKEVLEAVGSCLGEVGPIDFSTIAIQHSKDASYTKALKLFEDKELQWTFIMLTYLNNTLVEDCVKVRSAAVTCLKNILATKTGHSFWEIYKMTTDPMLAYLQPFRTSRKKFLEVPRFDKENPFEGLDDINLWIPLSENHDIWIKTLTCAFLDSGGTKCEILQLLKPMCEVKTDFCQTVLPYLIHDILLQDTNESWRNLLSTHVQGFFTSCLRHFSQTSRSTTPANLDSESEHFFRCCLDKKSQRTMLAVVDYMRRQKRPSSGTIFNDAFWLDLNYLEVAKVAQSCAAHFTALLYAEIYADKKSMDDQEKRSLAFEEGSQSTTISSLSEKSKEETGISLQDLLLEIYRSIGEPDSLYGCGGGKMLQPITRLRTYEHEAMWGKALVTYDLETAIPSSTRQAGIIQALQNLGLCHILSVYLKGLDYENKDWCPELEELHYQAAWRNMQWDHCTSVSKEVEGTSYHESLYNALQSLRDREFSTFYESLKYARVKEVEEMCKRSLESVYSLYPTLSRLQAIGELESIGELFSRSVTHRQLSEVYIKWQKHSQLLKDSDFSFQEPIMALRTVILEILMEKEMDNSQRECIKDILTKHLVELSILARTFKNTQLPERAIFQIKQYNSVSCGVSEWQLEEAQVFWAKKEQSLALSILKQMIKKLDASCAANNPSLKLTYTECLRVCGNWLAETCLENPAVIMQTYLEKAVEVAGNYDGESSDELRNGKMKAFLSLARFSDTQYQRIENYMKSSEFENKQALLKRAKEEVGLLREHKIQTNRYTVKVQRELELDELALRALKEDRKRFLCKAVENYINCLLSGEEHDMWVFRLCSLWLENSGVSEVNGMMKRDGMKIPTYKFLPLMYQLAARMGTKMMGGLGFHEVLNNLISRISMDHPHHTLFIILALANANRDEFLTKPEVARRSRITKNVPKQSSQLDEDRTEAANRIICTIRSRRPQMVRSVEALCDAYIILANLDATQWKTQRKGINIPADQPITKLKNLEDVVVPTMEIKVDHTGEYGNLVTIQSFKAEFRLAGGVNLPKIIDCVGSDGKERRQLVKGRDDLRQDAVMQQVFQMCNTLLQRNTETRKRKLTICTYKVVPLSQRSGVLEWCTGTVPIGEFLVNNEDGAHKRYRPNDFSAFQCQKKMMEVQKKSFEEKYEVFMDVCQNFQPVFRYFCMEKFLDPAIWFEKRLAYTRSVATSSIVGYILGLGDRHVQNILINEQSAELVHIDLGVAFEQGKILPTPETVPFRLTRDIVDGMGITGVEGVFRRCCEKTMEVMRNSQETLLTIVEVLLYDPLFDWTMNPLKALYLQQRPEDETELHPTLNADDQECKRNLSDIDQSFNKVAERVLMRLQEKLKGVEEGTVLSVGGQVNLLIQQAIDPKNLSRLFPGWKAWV
Chain of PI3K-α (P42336 whole entry, looked up): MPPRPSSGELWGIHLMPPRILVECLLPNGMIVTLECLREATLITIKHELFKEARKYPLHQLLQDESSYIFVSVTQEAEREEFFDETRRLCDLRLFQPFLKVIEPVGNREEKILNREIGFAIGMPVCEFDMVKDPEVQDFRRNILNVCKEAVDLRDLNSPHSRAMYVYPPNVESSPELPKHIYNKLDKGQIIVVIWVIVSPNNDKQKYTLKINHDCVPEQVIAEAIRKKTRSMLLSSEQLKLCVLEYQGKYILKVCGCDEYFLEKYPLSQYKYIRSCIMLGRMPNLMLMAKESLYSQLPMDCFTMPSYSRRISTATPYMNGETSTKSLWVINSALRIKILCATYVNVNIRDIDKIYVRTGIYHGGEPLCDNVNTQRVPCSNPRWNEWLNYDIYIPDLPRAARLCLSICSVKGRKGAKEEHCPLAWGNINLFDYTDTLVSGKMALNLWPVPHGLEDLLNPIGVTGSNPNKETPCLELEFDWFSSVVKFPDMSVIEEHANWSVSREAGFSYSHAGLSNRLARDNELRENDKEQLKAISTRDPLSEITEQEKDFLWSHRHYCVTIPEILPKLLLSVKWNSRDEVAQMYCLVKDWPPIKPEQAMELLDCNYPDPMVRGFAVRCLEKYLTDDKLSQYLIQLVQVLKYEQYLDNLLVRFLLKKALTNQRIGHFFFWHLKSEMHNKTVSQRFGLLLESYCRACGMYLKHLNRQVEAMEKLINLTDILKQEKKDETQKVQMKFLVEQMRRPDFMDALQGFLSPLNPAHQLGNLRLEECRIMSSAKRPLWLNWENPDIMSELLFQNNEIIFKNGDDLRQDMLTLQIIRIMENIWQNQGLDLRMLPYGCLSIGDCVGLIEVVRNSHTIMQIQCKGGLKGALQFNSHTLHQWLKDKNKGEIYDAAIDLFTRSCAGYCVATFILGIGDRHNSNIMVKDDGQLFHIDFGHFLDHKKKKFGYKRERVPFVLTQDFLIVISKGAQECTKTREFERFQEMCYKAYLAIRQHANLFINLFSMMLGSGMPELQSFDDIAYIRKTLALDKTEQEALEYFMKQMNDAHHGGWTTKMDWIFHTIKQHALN

Row | SMILES | IC50 (ATM kinase) | IC50 (ATR kinase) | IC50 (PI3K-α) | IC50 (mTOR)
1 | CN(C)CCCOc1ccc(-c2cc3c(cc2F)ncc2c3n(C3COC3)c(=O)n2C)cn1 [Example 9, 8-[6-(3-dimethylaminopropoxy)pyridin-3-yl]-7-fluoro-3-methyl-1-(oxetan-3-yl)imidazo[5,4-c]quinolin-2-one] | 3.8 nM | > 30000 nM | > 29100 nM | > 21300 nM
2 | CO[C@H]1C[C@@H](n2c(=O)[nH]c3cnc4ccc(-c5ccc(OCCCN(C)C)nc5)cc4c32)C1 [Example 12, 8-[6-(3-dimethylaminopropoxy)pyridin-3-yl]-1-(cis-3-methoxycyclobutyl)-3H-imidazo[4,5-c]quinolin-2-one] | 1.03 nM | > 25200 nM | 769 nM | 540 nM
3 | CN(C)CCCOc1ccc(-c2ccc3ncc4[nH]c(=O)n(C5CCOCC5)c4c3c2)cn1 [Example 13, 8-[6-(3-dimethylaminopropoxy)pyridin-3-yl]-1-(oxan-4-yl)-3H-imidazo[4,5-c]quinolin-2-one] | 3.22 nM | > 30000 nM | 1520 nM | 248 nM
4 | Cn1c(=O)n([C@H]2C[C@@H](O)C2)c2c3cc(-c4ccc(OCCCN5CCC5)nc4)ccc3ncc21 [Example 14, 8-[6-[3-(azetidin-1-yl)propoxy]pyridin-3-yl]-1-(cis-3-hydroxycyclobutyl)-3-methylimidazo[4,5-c]quinolin-2-one] | 1.05 nM | > 30000 nM | 616 nM | 1040 nM
5 | Cn1c(=O)n([C@H]2C[C@@H](O)C2)c2c3cc(-c4ccc(OCCCN5CCCC5)nc4)ccc3ncc21 [Example 15, 1-(cis-3-hydroxycyclobutyl)-3-methyl-8-[6-(3-pyrrolidin-1-ylpropoxy)pyridin-3-yl]imidazo[4,5-c]quinolin-2-one] | 0.447 nM | > 30000 nM | 2390 nM | 2580 nM
6 | CO[C@H]1C[C@@H](n2c(=O)n(C)c3cnc4cc(F)c(-c5ccc(OCCCN(C)C)nc5F)cc4c32)C1 [Example 19, 8-[6-(3-dimethylaminopropoxy)-2-fluoropyridin-3-yl]-7-fluoro-1-(cis-3-methoxycyclobutyl)-3-methylimidazo[4,5-c]quinolin-2-one] | 2.62 nM | > 30000 nM | > 28000 nM | 13700 nM
7 | CN(C)CCCOc1ccc(-c2ccc3ncc4c(c3c2)n([C@H]2CCCOC2)c(=O)n4C)c(F)n1 [Example 20, 8-[6-(3-dimethylaminopropoxy)-2-fluoropyridin-3-yl]-3-methyl-1-[(3S)-oxan-3-yl]imidazo[5,4-c]quinolin-2-one] | 0.365 nM | > 30000 nM | 1030 nM | 529 nM
8 | CN(C)CCCOc1ccc(-c2ccc3ncc4c(c3c2)n(C2CCOCC2)c(=O)n4C)c(F)n1 [Example 21, 8-[6-(3-dimethylaminopropoxy)-2-fluoropyridin-3-yl]-3-methyl-1-(oxan-4-yl)imidazo[5,4-c]quinolin-2-one] | 0.301 nM | > 30000 nM | 680 nM | 797 nM
9 | CN(C)CCCOc1ccc(-c2ccc3ncc4c(c3c2)n([C@@H]2CCCOC2)c(=O)n4C)c(F)n1 [Example 22, 8-[6-(3-dimethylaminopropoxy)-2-fluoropyridin-3-yl]-3-methyl-1-[(3R)-oxan-3-yl]imidazo[5,4-c]quinolin-2-one] | 0.552 nM | > 30000 nM | 849 nM | 1370 nM
10 | Cn1c(=O)n([C@H]2CCCOC2)c2c3cc(-c4ccc(OCCCN5CCCC5)nc4)c(F)cc3ncc21 [Example 23, 7-fluoro-3-methyl-8-[6-(3-pyrrolidin-1-ylpropoxy)-3-pyridyl]-1-[(3S)-tetrahydropyran-3-yl]imidazo[4,5-c]quinolin-2-one] | 0.563 nM | > 30000 nM | > 30000 nM | 18200 nM
11 | Cn1c(=O)n([C@@H]2CCCOC2)c2c3cc(-c4ccc(OCCCN5CCCC5)nc4)c(F)cc3ncc21 [Example 24, 7-fluoro-3-methyl-8-[6-(3-pyrrolidin-1-ylpropoxy)-3-pyridyl]-1-[(3R)-tetrahydropyran-3-yl]imidazo[4,5-c]quinolin-2-one] | 0.69 nM | > 18800 nM | 7290 nM | > 9430 nM
12 | CO[C@@H]1CC[C@@H](n2c(=O)n(C)c3cnc4ccc(-c5ccc(OCCCN(C)C)nc5)cc4c32)C1 [Example 25, 8-[6-(3-Dimethylaminopropoxy)pyridin-3-yl]-1-[(1R,3R)-3-methoxycyclopentyl]-3-methylimidazo[4,5-c]quinolin-2-one] | 0.315 nM | > 20700 nM | 1050 nM | 1190 nM
13 | CO[C@H]1CC[C@H](n2c(=O)n(C)c3cnc4ccc(-c5ccc(OCCCN(C)C)nc5)cc4c32)C1 [Example 26, 8-[6-(3-Dimethylaminopropoxy)pyridin-3-yl]-1-[(1S,3S)-3-methoxycyclopentyl]-3-methylimidazo[4,5-c]quinolin-2-one] | 0.152 nM | > 21800 nM | 331 nM | 360 nM
14 | Cn1c(=O)n([C@H]2CCCOC2)c2c3cc(-c4ccc(OCCCN5CCCCC5)nc4)ccc3ncc21 [Example 31, 3-methyl-1-[(3S)-oxan-3-yl]-8-[6-(3-piperidin-1-ylpropoxy)pyridin-3-yl]imidazo[5,4-c]quinolin-2-one] | 1.09 nM | > 30000 nM | > 10900 nM | 19500 nM
15 | Cn1c(=O)n([C@@H]2CCCOC2)c2c3cc(-c4ccc(OCCCN5CCCCC5)nc4)ccc3ncc21 [Example 32, 3-methyl-1-[(3R)-oxan-3-yl]-8-[6-(3-piperidin-1-ylpropoxy)pyridin-3-yl]imidazo[5,4-c]quinolin-2-one] | 1.78 nM | > 30000 nM | 2940 nM | 6100 nM
16 | Cn1c(=O)n([C@@H]2CCCOC2)c2c3cc(-c4ccc(OCCCN5CCC5)nc4)ccc3ncc21 [Example 34, 8-[6-[3-(azetidin-1-yl)propoxy]pyridin-3-yl]-3-mehtyl-1-[(3R)-oxan-3-yl]imidazo[5,4-c]quinolin-2-one] | 0.84 nM | > 16900 nM | 402 nM | 505 nM
17 | CO[C@H]1C[C@@H](n2c(=O)[nH]c3cnc4ccc(-c5ccc(OCCCN6CCCC6)nc5)cc4c32)C1 [Example 35, 1-(cis-3-methoxycyclobutyl)-8-[6-(3-pyrrolidin-1-ylpropoxy)pyridin-3-yl]-3H-imidazo[4,5-c]quinolin-2-one] | 0.589 nM | 17800 nM | 3000 nM | 579 nM
18 | O=c1[nH]c2cnc3ccc(-c4ccc(OCCCN5CCCCC5)nc4)cc3c2n1C1CCOCC1 [Example 36, 1-(oxan-4-yl)-8-[6-(3-piperidin-1-ylpropoxy)pyridin-3-yl]-3H-imidazo[4,5-c]quinolin-2-one] | 3.01 nM | > 30000 nM | > 25000 nM | 10600 nM
19 | Cn1c(=O)n(C2CCOCC2)c2c3cc(-c4ccc(OCCCN5CCCCC5)nc4)ccc3ncc21 [Example 37, 3-methyl-1-(oxan-4-yl)-8-[6-(3-piperidin-1-ylpropoxy)pyridin-3-yl]imidazo[5,4-c]quinolin-2-one] | 1.2 nM | > 29400 nM | 20700 nM | 12400 nM
20 | CO[C@H]1C[C@@H](n2c(=O)n(C)c3cnc4ccc(-c5ccc(OCCCN6CCC6)nc5)cc4c32)C1 [Example 38, 8-[6-[3-(azetidin-1-yl)propoxy]pyridin-3-yl]-1-(cis-3-methoxycyclobutyl)-3-methylimidazo[4,5-c]quinolin-2-one] | 0.292 nM | > 24400 nM | 729 nM | 2240 nM
21 | Cn1c(=O)n(C2CCOCC2)c2c3cc(-c4ccc(OCCCN5CCC5)nc4)ccc3ncc21 [Example 39, 8-[6-[3-(azetidin-1-yl)propoxy]pyridin-3-yl]-3-methyl-1-(oxan-4-yl)imidazo[5,4-c]quinolin-2-one] | 1.33 nM | 10700 nM | 828 nM | 1270 nM
22 | CNCCCOc1ccc(-c2ccc3ncc4c(c3c2)n(C2CCOCC2)c(=O)n4C)cn1 [Example 40, 3-Methyl-8-[6-(3-methylaminopropoxy)pyridin-3-yl]-1-(oxan-4-yl)imidazo[5,4-c]quinolin-2-one] | 0.567 nM | 1330 nM | 184 nM | 191 nM
23 | CNCCCOc1ccc(-c2ccc3ncc4c(c3c2)n([C@H]2CCCOC2)c(=O)n4C)cn1 [Example 41, 3-methyl-8-[6-(3-methylaminopropoxy)pyridin-3-yl]-1-[(3S)-oxan-3-yl]imidazo[5,4-c]quinolin-2-one] | 0.555 nM | 3940 nM | 267 nM | 395 nM
24 | CNCCCOc1ccc(-c2ccc3ncc4c(c3c2)n([C@H]2C[C@@H](OC)C2)c(=O)n4C)cn1 [Example 42, 1-(cis-3-methoxycyclobutyl)-3-methyl-8-[6-(3-methylaminopropoxy)pyridin-3-yl]imidazo[4,5-c]quinolin-2-one] | 0.249 nM | 4370 nM | 321 nM | 214 nM
25 | CNCCCOc1ccc(-c2ccc3ncc4c(c3c2)n([C@@H]2CCCOC2)c(=O)n4C)cn1 [Example 43, 3-methyl-8-[6-[3-(methylamino)propoxy]-3-pyridyl]-1-[(3R)-tetrahydropyran-3-yl]imidazo[4,5-c]quinolin-2-one] | 0.592 nM | 2690 nM | 167 nM | 262 nM

From patent US9428503B2, “Imidazo[4,5-c]quinolin-2-one compounds and their use in treating Cancer” (AstraZeneca AB, priority 2014, dated 2016)
